Test results: patent US12553889B2, “Small molecules targeting the intrinsically disordered structural ensemble of α-synuclein protect against diverse α-synuclein mediated dysfunctions” (The Regents of the University of California, priority 2019, dated 2026)
“Also recorded” adds a separate entry of the source.

Molecular target: αSyn (Homo sapiens, UniProt P37840)
Test: αSyn fibrillization assay (Thioflavin T fluorescence)
Type: biochemical
Design: made in house; host or cells: E. coli BL21(DE3), pET-21d
Settings: for impact on αSyn fibrillization (thioflavin fluorescence signal): compound at 300 μM, 70 μM αSyn, vs 0.5% DMSO control
Description: Fibrillization assays. Prior to each aggregation assay, purified αSyn at 5 mg/mL was treated with 6M guanidine and dialyzed 36 hours in a 3500 MW cutoff Slide-A-lyzer with three changes of 20 mM sodium phosphate and 100 mM NaCl pH 7.4 buffer. αSyn was centrifuged at 130,000 g for 40 minutes in a Beckman Ultracentrifuge to remove seeding species and supernatant used for assays. For initial testing, 60 mM compound in DMSO was diluted to 300 μM in 0.5% DMSO and controls contained equivalent DMSO concentrations. Assay samples contained 20 μM Thioflavin T, filtered through a 0.45 μm Acrodisc filter prior to each assay, 70 μM αSyn in 20 mM sodium phosphate and 100 mM NaCl pH 7.4. One teflon bead, (0.125″ PTFE, Grade 2 polished) was placed in each well of a 96 well black with clear bottom assay plate (Corning) in a total volume of 500 μL. The plate was sealed with Mylar and parafilm, placed at 37° C. in a Tecan F200Pro Plate Reader and shaken at an amplitude of 6 mm for 120 hours continuously except for a brief time during reading of the plate. Thioflavin T fluorescence was detected by excitation at 440 nm and reading emissions at 485 nm each 60 minutes throughout the assay. To generate αSyn seeds for the seeding assays, αSyn at 10 mg/mL was incubated with stirring at 43° C. for 24 hours followed by exhaustive sonication. 1% (by mass) of seeds were added to the fibrillization assay. Samples were plated in quadruplicate, and the replicates averaged for each experiment for plotted data. Data were analyzed in Excel using XL-fit sigmoidal model #600 and when normalized, comparing fluorescence values at 50 hours for compounds as a percentage of DMSO control.
α-Syn for the Fibrillization assay. Wildtype human αSyn was produced from a pET-21d plasmid (Millipore, Burlington, MA) in E. coli BL21(DE3) cells induced by addition of 1 mM […] and incubated at 16° C. overnight. Cells were harvested by centrifugation at 4,000×g for 10 minutes and stored at −80° C. Frozen cells expressing αSyn protein were resuspended in 50 mM Tris, pH 7.5, 1 mM TCEP, 1 mM EDTA, and 1 mM L-Methionine and lysed using a microfluidizer. Lysate was centrifuged at 7000×g for 0.5 hours at 21° C. The supernatant was boiled in a water bath for 15 minutes, cooled on ice and centrifuged at 45,000 g for 30 min. The supernatant was filtered through a 0.2 μm Corning filter and subjected to ion exchange chromatography using a Capto ImpRes Q (GE Healthcare, Upssala, Sweden) anion exchange (IEX) column at ambient temperature. The column was eluted with a gradient of 100 column volumes from 0 to 1M NaCl using an AKTA Explorer 100 Liquid Chromatography System (GE Healthcare, Uppsala, Sweden). Pure αSyn fractions were desalted to 50 mM KPO4, pH 7.5 and 50 mM NaCl using PD-10 columns (GE Healthcare, Chicago, IL) and concentrated to 5 mg/mL or 10 mg/ml (3K MWCO, Amicon Ultra, Millipore, Burlington, MA).
Statistical Analysis of compound activity in Fibrillization assays. For the analyses of compound activity in the αSyn fibrillization assay, the relative fluorescence unit (RFU) data obtained from compounds were compared to those of DMSO, to identify those that are statistically different from DMSO at various time points. Each experiment contained 4 replicates of each compound and of DMSO control. […] A repeated measures analysis of variance was performed on logarithmic transformed data using a linear mixed effects model which included Compound, Time, Replicate (Compound) and Compound*Time. The covariance structure across time that minimized the corrected Akaike Information Criterion (AICC) was used and the Kenward and Roger method was used to determine the appropriate degrees of freedom. Each compound mean was compared to the DMSO mean using Bonferroni multiplicity adjusted t-tests. Statistical analyses were conducted using the MIXED procedure in SAS 9.1 (SAS Institute Inc. Cary, NC, USA). Statistical significance refers to p-value<0.05.

| Compound | impact on αSyn fibrillization (thioflavin fluorescence signal) | inhibition of aggregation when used as control (over 30 synuclein fibrillization experiments) |
| --- | --- | --- |
| Cc1c(-c2csc(NC(C(N)=O)C3CCNCC3)n2)sc2ccccc12 (stereo not shown) [Compound 573437, 2-((4-(3-methylbenzo[b]thiophen-2-yl)thiazol-2-yl)amino)-2-(piperidin-4-yl)acetamide] | missed by the more variable αSyn fibrillization assay | – |
| CNC(=O)c1cc(O)ccc1N [Compound 576755, 2-amino-5-hydroxy-N-methylbenzamide] | inhibit fibrillization; also recorded: impair fibrillization | robust inhibition of aggregation in all assays |
| CNC(=O)CN(C(=O)Cc1noc2ccccc12)C(C)c1ccc(Cl)cc1 (stereo not shown) [Compound 582032, 2-(benzo[d]isoxazol-3-yl)-N-(1-(4-chlorophenyl)ethyl)-N-(2-(methylamino)-2-oxoethyl)acetamide] | inhibit fibrillization; also recorded: impair fibrillization | – |
